Legend:
Assay in all cases: combination Emax (second highest fraction inhibited in the dose matrix, 72 h); higher = more inhibition; extreme values may be limits of the assay
[1] = system: MDA-MB-157 (Breast Carcinoma)
Procedure, shortened: (§1)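 After 24 hours at 37°C and 5% CO2 in 1536-well plates, cells in DMEM/F12 or RPMI plus 10% FBS received two-drug dose matrices for 72 hours. Viability came from CellTiter-Glo 2.0 luminescence and was scaled as inhibition, anchored at 0 by vehicle wells and at 1 by blank wells. Combination Emax is taken as the second-highest inhibition in the matrix, and Bliss excess as the observed combination effect less EA + EB − EA·EB, with EA and EB the single-agent effects.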

[2] = system: KATOIII (Gastric Carcinoma)
Procedure, shortened: as §1

[3] = system: LS-513 (Colorectal Carcinoma)
Procedure, shortened: as §1

SK-N-FI (Neuroblastoma) = system: SK-N-FI (Neuroblastoma)
Procedure, shortened: as §1

[4] = system: SW756 (Cervical Carcinoma)
Procedure, shortened: as §1

[5] = system: DOV13 (Ovarian Carcinoma)
Procedure, shortened: as §1

[6] = system: SW1990 (Pancreatic Carcinoma)
Procedure, shortened: as §1

[7] = system: NCI-H1793 (Lung Adenocarcinoma)
Procedure, shortened: as §1

[8] = system: SW1783 (Low Grade Glioma)
Procedure, shortened: as §1

[9] = system: MFH-ino (Other Solid Carcinomas)
Procedure, shortened: as §1

[10] = system: JiyoyeP-2003 (Burkitt's Lymphoma)
Procedure, shortened: as §1

[11] = system: SW1088 (Low Grade Glioma)
Procedure, shortened: as §1

[12] = system: KARPAS-1106P (B-Cell Non-Hodgkin's Lymphoma)
Procedure, shortened: as §1

[13] = system: 697 (B-Lymphoblastic Leukemia)
Procedure, shortened: as §1

SN12C (Kidney Carcinoma) = system: SN12C (Kidney Carcinoma)
Procedure, shortened: as §1

[14] = system: C3A (Hepatocellular Carcinoma)
Procedure, shortened: as §1

[15] = system: NCI-H1694 (Small Cell Lung Carcinoma)
Procedure, shortened: as §1

[16] = system: TE-5 (Esophageal Squamous Cell Carcinoma)
Procedure, shortened: as §1

[17] = system: SW780 (Bladder Carcinoma)
Procedure, shortened: as §1

[18] = system: NCI-H1299 (Non-Small Cell Lung Carcinoma)
Procedure, shortened: as §1

Row | Compound | combination Emax [1] | combination Emax [2] | combination Emax [3] | combination Emax (SK-N-FI (Neuroblastoma)) | combination Emax [4] | combination Emax [5] | combination Emax [6] | combination Emax [7] | combination Emax [8] | combination Emax [9] | combination Emax [10] | combination Emax [11] | combination Emax [12] | combination Emax [13] | combination Emax (SN12C (Kidney Carcinoma)) | combination Emax [14] | combination Emax [15] | combination Emax [16] | combination Emax [17] | combination Emax [18]
1 | COc1nnc2ccc(N3CCC(c4ccc(OCCN5CCN(C)C(=O)[C@H]5C)cc4)CC3)nn12 [AZD5153] + CC1(C)CCC(CN2CCN(c3ccc(C(=O)NS(=O)(=O)c4ccc(NCC5CCOCC5)c([N+](=O)[O-])c4)c(Oc4cnc5[nH]ccc5c4)c3)CC2)=C(c2ccc(Cl)cc2)C1 [Venetoclax] (first compound max 1 µM, 7x7, partner max 1 µM) | 0.498 | 0.337 | 0.568 | 0.629 | 0.315 | 0.477 | 0.108 | 0.248 | 0.28 | 0.415 | 0.833 | 0.471 | 0.761 | 1 | 0.318 | 0.453 | 0.551 | 0.412 | 0.375 | 0.691
2 | COc1nnc2ccc(N3CCC(c4ccc(OCCN5CCN(C)C(=O)[C@H]5C)cc4)CC3)nn12 [AZD5153] + CCN(CCO)CCCOc1ccc2c(Nc3cc(CC(=O)Nc4cccc(F)c4)[nH]n3)ncnc2c1 [AZD2811] (first compound max 1 µM, 7x7, partner max 1 µM) | 0.54 | 0.31 | 0.602 | 0.657 | 0.386 | 0.676 | 0.118 | 0.278 | 0.328 | 0.553 | 0.846 | 0.519 | 0.741 | 1 | 0.394 | 0.524 | 0.364 | 0.434 | 0.339 | 0.71
3 | COc1nnc2ccc(N3CCC(c4ccc(OCCN5CCN(C)C(=O)[C@H]5C)cc4)CC3)nn12 [AZD5153] + C[C@@H]1COCCN1C2=NC(=NC(=C2)C3(CC3)[S@](=N)(=O)C)C4=C5C=CNC5=NC=C4 [AZD6738] (first compound max 1 µM, 7x7, partner max 10 µM) | 0.913 | 0.553 | 0.755 | 0.783 | 0.447 | 0.923 | 0.497 | 0.629 | 0.515 | 0.547 | 0.95 | 0.645 | 0.944 | 1 | 0.204 | 0.741 | 0.921 | 0.503 | 0.465 | 0.794
4 | COc1nnc2ccc(N3CCC(c4ccc(OCCN5CCN(C)C(=O)[C@H]5C)cc4)CC3)nn12 [AZD5153] + Cc1c2c(nn1C)CSCc1cc(n(C)n1)CSc1cc(c3ccccc3c1)OCCCc1c(C(=O)O)n(C)c3c-2c(Cl)ccc13 [AZD5991] (first compound max 1 µM, 7x7, partner max 1 µM) | 0.993 | 0.324 | 0.644 | 0.722 | 0.367 | 0.487 | 0.109 | 0.288 | 0.336 | 0.489 | 0.918 | 0.487 | 1 | 1 | 0.309 | 0.559 | 0.992 | 0.407 | 0.365 | 0.798
5 | COc1nnc2ccc(N3CCC(c4ccc(OCCN5CCN(C)C(=O)[C@H]5C)cc4)CC3)nn12 [AZD5153] + Cn1cnc2c(F)c(Nc3ccc(Br)cc3Cl)c(C(=O)NOCCO)cc21 [Selumetinib] (first compound max 1 µM, 7x7, partner max 10 µM) | 0.546 | 0.424 | 0.951 | 0.844 | 0.534 | 0.482 | 0.265 | 0.373 | 0.246 | 0.636 | 0.839 | 0.513 | 0.699 | 1 | 0.277 | 0.777 | 0.234 | 0.429 | 0.537 | 0.729
6 | Cc1c2c(nn1C)CSCc1cc(n(C)n1)CSc1cc(c3ccccc3c1)OCCCc1c(C(=O)O)n(C)c3c-2c(Cl)ccc13 [AZD5991] + C1CN(CCC1(C(=O)N[C@@H](CCO)C2=CC=C(C=C2)Cl)N)C3=NC=NC4=C3C=CN4 [Capivasertib] (first compound max 1 µM, 7x7, partner max 3 µM) | 0.714 | 0.233 | 0.344 | 0.514 | 0.136 | 0.272 | 0.121 | 0.302 | 0.352 | 0.248 | 0.857 | 0.527 | 0.901 | 1 | 0.204 | 0.254 | 1 | 0.329 | 0.165 | 0.224

Reference: the supplement of paper PMC11061612
